Values quoted from earlier work as cited in US20120141398A1, “HAIR DYE CONTAINING ONE OR MORE EDIBLE OR COSMETIC COLORS” (priority 2010, published 2012).

Key:
large rat = details: text b11, species not given

SMILES | Ames Test (mutagenicity) (Salmonella typhimurium) | other results
COc1ccc(N)cc1N [2,4 diaminoanisole] | + | 
CCc1ccc(N)cc1N [2,4-diamino-ethylbenzene] | + | 
Nc1ccccc1O [2-Aminophenol] |  | Median Lethal Dose/Kg (small rat; small rat): 800 g (small rat) g/Kg
Nc1cc([N+](=O)[O-])ccc1O [2-amino-4-nitrophenolate] | + | 
Nc1ccc(OCCO)cc1[N+](=O)[O-] [4-amino-3-nitro-phenoxyethanol] | + | 
Oc1cccc(O)c1 [Resorcinol] |  | median lethal dose (small rat; rat, in vivo): 200 mg/kg
Nc1cccc(N)c1 [m-phenylenediamine] | + | 
Nc1ccccc1N [o-phenylenediamine] | + | 
Nc1ccc(N)cc1 [p-phenylenediamine] | + | median lethal dose (large rat): 80 mg/kg
